Data as given in paper PMC3816717 (Bioorganic & medicinal chemistry, 2011).

Tests used:
hCD22 = biological target: T1, hCD22 (Homo sapiens, UniProt P20273); assay: Competition ELISA; format: binding
T1 sequence (P20273 20-326 limits assumed): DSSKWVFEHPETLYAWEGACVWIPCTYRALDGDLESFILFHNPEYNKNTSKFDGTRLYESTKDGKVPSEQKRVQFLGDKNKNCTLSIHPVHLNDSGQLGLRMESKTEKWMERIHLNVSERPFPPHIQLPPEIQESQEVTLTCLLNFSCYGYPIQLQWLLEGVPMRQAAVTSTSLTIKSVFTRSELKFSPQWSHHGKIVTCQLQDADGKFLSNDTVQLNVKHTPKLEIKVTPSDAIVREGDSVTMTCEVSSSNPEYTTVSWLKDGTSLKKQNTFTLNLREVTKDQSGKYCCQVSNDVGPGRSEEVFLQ

mCD22 = mCD22 (Mus musculus, UniProt P35329); assay: Competition ELISA with biotinylated form of 1, mCD22Fc; format: binding, murine

Question: For `O=C(Cc1ccc(-c2ccc(O)cc2)cc1)NC[C@@H](O)[C@@H](O)[C@@H]1O[C@@](OCc2ccc(-c3ccccc3)cc2)(C(=O)O)C[C@H](O)[C@H]1NC(=O)CO` [Compound 6], which IC50 (hCD22) is on record?
Answer: 380 nM

Question: For `O=C(CO)N[C@H]1[C@H]([C@H](O)[C@H](O)CNCc2ccc(-c3ccc(O)cc3)cc2)O[C@@](OCc2ccc(-c3ccccc3)cc2)(C(=O)O)C[C@@H]1O` [Compound 9, (4-Biphenyl)methyl 3,5,9-trideoxy-5-glycolamido-9-(4′-hydroxy-4-biphenyl) methylamino-D-glycero-α-D-galacto-2-nonulopyranosidonic acid], which IC50 (hCD22) is on record?
Answer: 2240 ± 280 nM

Question: With `O=C(Cc1ccc(-c2ccc(O)cc2)cc1)NC[C@@H](O)[C@@H](O)[C@@H]1O[C@@](OCc2ccccc2)(C(=O)O)C[C@H](O)[C@H]1NC(=O)CO` [Compound 5, benzyl 3,5,9-trideoxy-5-glycolamido-9-(4′-hydroxy-4-biphenyl)acetamido-D-glycero-α-D-galacto-2-nonulopyranosidonic acid] as the compound, how does the IC50 (hCD22) read?
Answer: 240 ± 50 nM

Question: How did the “fold less potent than 5 for CD22” value (mCD22) turn out when `O=C(Cc1ccc(-c2ccc(F)cc2)cc1)NC[C@@H](O)[C@@H](O)[C@@H]1O[C@@](OCc2ccccc2)(C(=O)O)C[C@H](O)[C@H]1NC(=O)CO` [Compound 7, Benzyl 3,5,9-trideoxy-5-glycolamido-9-(4′-fluoro-4-biphenyl)acetamido-D-glycero-α-D-galacto-2-nonulopyranosidonic acid] was run?
Answer: 50 fold

Question: Which IC50 (hCD22) does the source give for `COc1ccc(O[C@@H]2O[C@H](CO[C@]3(C(=O)O)C[C@H](O)[C@@H](NC(=O)CO)[C@H]([C@H](O)[C@H](O)CNC(=O)Cc4ccc(-c5ccc(O)cc5)cc4)O3)[C@H](O)[C@H](O)[C@H]2O)cc1` [Compound 1, 9-(4'-hydroxy-4-biphenyl)acetamido-9-deoxy-Neu5Gcα2-6GalOMP, reference compound] here?
Answer: 3270 ± 620 nM

Question: For `O=C(CO)N[C@H]1[C@H]([C@H](O)[C@H](O)CNCc2ccc(-c3ccc(O)cc3)cc2)O[C@@](OCc2ccccc2)(C(=O)O)C[C@@H]1O` [Compound 8, Benzyl 3,5,9-trideoxy-5-glycolamido-9-(4′-hydroxy-4-biphenyl)methylamino-D-glycero-α-D-galacto-2-nonulopyranosidonic acid], which IC50 (hCD22) is on record?
Answer: 2750 ± 1300 nM

Question: Which IC50 (hCD22) does the source give for `COc1ccc(O[C@@H]2O[C@H](CO[C@]3(C(=O)O)C[C@H](O)[C@@H](NC(=O)CO)[C@H]([C@H](O)[C@H](O)CNCc4ccc(-c5ccc(O)cc5)cc4)O3)[C@H](O)[C@H](O)[C@H]2O)cc1` [Compound 2, 9-(4'-hydroxy-4-biphenyl)methylamino-9-deoxy-Neu5Gcα2-6GalOMP, reference compound] here?
Answer: 3290 ± 330 nM
